From PubChem BioAssay (NCI)
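Interpolation was linear, between the two tested concentrations surrounding the appropriate level; five concentrations were tested over 48 hours in 96-well plates. GI50 is the concentration that inhibits growth by half. At the TGI there is no net growth.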

Columns and labels:
Assay in all cases: DTP human tumour cell line panel, 48 h
[1] = system: UACC-62 melanoma
[2] = system: SF-268 CNS
[3] = system: SK-MEL-28 melanoma
[4] = system: IGROV1 ovarian
[5] = system: NCI-H23 lung
[6] = system: MOLT-4 leukemia
[7] = system: ACHN renal
[8] = system: A498 renal
[9] = system: UO-31 renal
[10] = system: MDA-MB-435
[11] = system: NCI-H460 lung
[12] = system: DU-145 prostate
[13] = system: SNB-19 CNS
[14] = system: RXF 393 renal
[15] = system: SK-MEL-2 melanoma
[16] = system: TK-10 renal
[17] = system: OVCAR-5 ovarian
[18] = system: HL-60(TB) leukemia
[19] = system: SW-620 colon
[20] = system: SF-295 CNS
[21] = system: K-562 leukemia
[22] = system: BT-549 breast
[23] = system: LOX IMVI melanoma
[24] = system: MDA-MB-231 breast
[25] = system: HS 578T breast
[26] = system: EKVX NSCLC
[27] = system: HT29 colon
[28] = system: NCI-H522 lung
[29] = system: OVCAR-3 ovarian
[30] = system: SN12C renal
[31] = system: SK-OV-3 ovarian
[32] = system: UACC-257 melanoma
[33] = system: HCC-2998 colon
[34] = system: SK-MEL-5 melanoma
[35] = system: CCRF-CEM leukemia
[36] = system: MALME-3M melanoma
[37] = system: SR leukemia
[38] = system: MDA-MB-468 breast
[39] = system: CAKI-1 renal
[40] = system: SF-539 CNS
[41] = system: MCF7 breast
[42] = system: HCT-15 colon
[43] = system: HOP-92 NSCLC
[44] = system: NCI/ADR-RES ovarian
[45] = system: SNB-75 CNS

CC(=O)Nc1ccc(-c2cn(-c3cccc(C(=O)Nc4cc(CN5CCOCC5)cc(C(F)(F)F)c4)c3)nn2)cn1
GI50 [1]: 1290 nM
TGI [1]: 2660 nM
GI50 [2]: 2580 nM
TGI [2]: 5580 nM
GI50 [3]: 1280 nM
TGI [3]: 2570 nM
GI50 [4]: 2190 nM
TGI [4]: 5120 nM
GI50 [5]: 1630 nM
TGI [5]: 3080 nM
GI50 [6]: 3120 nM
TGI [6]: 16700 nM
GI50 [7]: 1770 nM
TGI [7]: 3260 nM
GI50 [8]: 2410 nM
TGI [8]: 4570 nM
GI50 [9]: 1920 nM
TGI [9]: 3800 nM
GI50 [10]: 1580 nM
TGI [10]: 3290 nM
GI50 [11]: 2340 nM
TGI [11]: 5110 nM
GI50 [12]: 2400 nM
TGI [12]: 5110 nM
GI50 [13]: 2230 nM
TGI [13]: 4360 nM
GI50 [14]: 1870 nM
TGI [14]: 3360 nM
GI50 [15]: 2130 nM
TGI [15]: 5440 nM
GI50 [16]: 433 nM
TGI [16]: 1460 nM
GI50 [17]: 1880 nM
TGI [17]: 4990 nM
GI50 [18]: 1330 nM
TGI [18]: 5470 nM
GI50 [19]: 1940 nM
TGI [19]: 3830 nM
GI50 [20]: 1590 nM
TGI [20]: 2940 nM
GI50 [21]: 178 nM
TGI [21]: > 100000 nM
GI50 [22]: 2590 nM
TGI [22]: 4440 nM
GI50 [23]: 1420 nM
TGI [23]: 2800 nM
GI50 [24]: 1230 nM
TGI [24]: 2590 nM
GI50 [25]: 1900 nM
TGI [25]: 5040 nM
GI50 [26]: 2440 nM
TGI [26]: 6130 nM
GI50 [27]: 2000 nM
TGI [27]: 5970 nM
GI50 [28]: 2040 nM
TGI [28]: 4820 nM
GI50 [29]: 2230 nM
TGI [29]: 3990 nM
GI50 [30]: 1650 nM
TGI [30]: 3080 nM
GI50 [31]: 2130 nM
TGI [31]: 3930 nM
GI50 [32]: 1630 nM
TGI [32]: 3570 nM
GI50 [33]: 1940 nM
TGI [33]: 3500 nM
GI50 [34]: 1570 nM
TGI [34]: 2930 nM
GI50 [35]: 3340 nM
TGI [35]: > 100000 nM
GI50 [36]: 477 nM
TGI [36]: 1820 nM
GI50 [37]: > 100000 nM
TGI [37]: > 100000 nM
GI50 [38]: 1650 nM
TGI [38]: 3100 nM
GI50 [39]: 1910 nM
TGI [39]: 3480 nM
GI50 [40]: 1480 nM
TGI [40]: 2820 nM
GI50 [41]: 1720 nM
TGI [41]: 3350 nM
GI50 [42]: 2030 nM
TGI [42]: 4110 nM
GI50 [43]: 1950 nM
TGI [43]: 4620 nM
GI50 [44]: 9400 nM
TGI [44]: > 100000 nM
GI50 [45]: 1780 nM
TGI [45]: 3280 nM
